Measured values reported in patent US11358949B2, “Carbamate and urea compounds as multikinase inhibitors” (ANGEX PHARMACEUTICAL, INC., priority 2017, dated 2022).

Legend:
AXL = target: T1, AXL (Homo sapiens, UniProt P30530); assay: HotSpot Kinase Assay, AXL
T1 sequence (P30530 26-894): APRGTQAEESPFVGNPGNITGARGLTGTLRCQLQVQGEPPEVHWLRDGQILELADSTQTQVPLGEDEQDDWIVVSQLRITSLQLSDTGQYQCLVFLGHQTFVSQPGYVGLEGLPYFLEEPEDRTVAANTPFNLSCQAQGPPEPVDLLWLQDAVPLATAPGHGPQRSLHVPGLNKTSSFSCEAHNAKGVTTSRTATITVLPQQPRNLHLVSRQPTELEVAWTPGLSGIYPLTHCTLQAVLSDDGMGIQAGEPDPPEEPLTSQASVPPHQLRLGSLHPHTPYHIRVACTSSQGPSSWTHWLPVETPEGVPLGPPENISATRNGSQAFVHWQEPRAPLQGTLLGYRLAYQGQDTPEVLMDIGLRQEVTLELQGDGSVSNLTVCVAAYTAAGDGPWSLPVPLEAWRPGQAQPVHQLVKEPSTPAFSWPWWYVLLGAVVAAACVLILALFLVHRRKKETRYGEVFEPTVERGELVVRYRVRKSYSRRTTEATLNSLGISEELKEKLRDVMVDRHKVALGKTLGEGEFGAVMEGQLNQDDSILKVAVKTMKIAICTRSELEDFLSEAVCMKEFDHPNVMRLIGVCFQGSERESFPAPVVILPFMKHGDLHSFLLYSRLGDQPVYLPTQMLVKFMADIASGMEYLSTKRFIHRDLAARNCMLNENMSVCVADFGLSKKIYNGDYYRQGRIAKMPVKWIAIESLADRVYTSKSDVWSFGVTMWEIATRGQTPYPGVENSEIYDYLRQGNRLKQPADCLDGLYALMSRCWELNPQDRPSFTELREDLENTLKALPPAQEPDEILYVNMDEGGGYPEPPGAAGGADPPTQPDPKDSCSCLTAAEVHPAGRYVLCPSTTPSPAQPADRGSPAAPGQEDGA
Experimental: (§1) Specifically, for each reaction, kinase and substrate were mixed in a pH 7.5 buffer containing 20 mM HEPES, 10 mM MgCl2, 1 mM EGTA [Ethylene glycol-bis(2-aminoethylether)-N,N,N′,N′-tetraacetic acid], 0.02% Brij35, 0.02 mg/mL BSA (Bovine Serum Albumin), 0.1 mM Na3VO4, 2 mM DTT, and 1% DMSO. Compounds were then added to each reaction mixture. After a 20-min incubation, ATP (Sigma-Aldrich) and [γ-^33P] ATP (PerkinElmer) were added at a final total concentration of 100 μM. Reactions were carried out at room temperature for 2 hours and spotted onto P81 ion exchange cellulose chromatography paper (Whatman). […] The percent remaining kinase activity relative to a vehicle-containing (DMSO) kinase reaction was calculated for each kinase/inhibitor pair. […] IC50 values were calculated using Prism 5 (GraphPad).

c-MER = target: T2, c-MER (Homo sapiens, UniProt Q12866); assay: HotSpot Kinase Assay, c-MER
T2 sequence (Q12866 21-999): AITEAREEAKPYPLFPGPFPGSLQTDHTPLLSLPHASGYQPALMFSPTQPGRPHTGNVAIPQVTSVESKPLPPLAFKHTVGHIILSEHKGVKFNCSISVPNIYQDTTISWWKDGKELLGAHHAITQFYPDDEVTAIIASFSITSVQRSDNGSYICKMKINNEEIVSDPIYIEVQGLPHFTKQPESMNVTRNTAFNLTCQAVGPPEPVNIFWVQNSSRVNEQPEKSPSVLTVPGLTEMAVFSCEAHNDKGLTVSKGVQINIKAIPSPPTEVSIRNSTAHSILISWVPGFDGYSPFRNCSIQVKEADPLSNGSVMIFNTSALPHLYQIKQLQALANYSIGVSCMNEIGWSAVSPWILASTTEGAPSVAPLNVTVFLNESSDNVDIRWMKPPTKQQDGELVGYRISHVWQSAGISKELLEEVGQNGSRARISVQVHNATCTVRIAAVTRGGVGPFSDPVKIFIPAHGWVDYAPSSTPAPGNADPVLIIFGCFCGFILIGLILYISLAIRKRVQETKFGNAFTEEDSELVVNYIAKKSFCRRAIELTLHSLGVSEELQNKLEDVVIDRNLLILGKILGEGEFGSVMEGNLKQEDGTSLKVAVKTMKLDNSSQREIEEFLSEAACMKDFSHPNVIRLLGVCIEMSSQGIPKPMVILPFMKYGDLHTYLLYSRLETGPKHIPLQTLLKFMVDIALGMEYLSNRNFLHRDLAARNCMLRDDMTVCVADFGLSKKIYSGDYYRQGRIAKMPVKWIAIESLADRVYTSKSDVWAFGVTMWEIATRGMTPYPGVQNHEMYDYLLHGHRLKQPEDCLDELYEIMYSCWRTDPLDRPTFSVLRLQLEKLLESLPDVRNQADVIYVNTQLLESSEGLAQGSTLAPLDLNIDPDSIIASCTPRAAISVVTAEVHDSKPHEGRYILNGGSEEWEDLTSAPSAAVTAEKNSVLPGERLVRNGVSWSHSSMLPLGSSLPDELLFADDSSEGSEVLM
Experimental: as §1

c-MET = c-MET (Homo sapiens, UniProt P08581); assay: HotSpot Kinase Assay, c-MET
Experimental: as §1

KDR/VEGFR2 = KDR/VEGFR2 (Homo sapiens, UniProt P35968); assay: HotSpot Kinase Assay, KDR/VEGFR2
Experimental: as §1

LOK/STK10 = LOK/STK10 (Homo sapiens, UniProt O94804); assay: HotSpot Kinase Assay, LOK/STK10
TYRO3/SKY = target: T3, TYRO3/SKY (Homo sapiens, UniProt Q06418); assay: HotSpot Kinase Assay, TYRO3/SKY
T3 sequence (Q06418 41-890): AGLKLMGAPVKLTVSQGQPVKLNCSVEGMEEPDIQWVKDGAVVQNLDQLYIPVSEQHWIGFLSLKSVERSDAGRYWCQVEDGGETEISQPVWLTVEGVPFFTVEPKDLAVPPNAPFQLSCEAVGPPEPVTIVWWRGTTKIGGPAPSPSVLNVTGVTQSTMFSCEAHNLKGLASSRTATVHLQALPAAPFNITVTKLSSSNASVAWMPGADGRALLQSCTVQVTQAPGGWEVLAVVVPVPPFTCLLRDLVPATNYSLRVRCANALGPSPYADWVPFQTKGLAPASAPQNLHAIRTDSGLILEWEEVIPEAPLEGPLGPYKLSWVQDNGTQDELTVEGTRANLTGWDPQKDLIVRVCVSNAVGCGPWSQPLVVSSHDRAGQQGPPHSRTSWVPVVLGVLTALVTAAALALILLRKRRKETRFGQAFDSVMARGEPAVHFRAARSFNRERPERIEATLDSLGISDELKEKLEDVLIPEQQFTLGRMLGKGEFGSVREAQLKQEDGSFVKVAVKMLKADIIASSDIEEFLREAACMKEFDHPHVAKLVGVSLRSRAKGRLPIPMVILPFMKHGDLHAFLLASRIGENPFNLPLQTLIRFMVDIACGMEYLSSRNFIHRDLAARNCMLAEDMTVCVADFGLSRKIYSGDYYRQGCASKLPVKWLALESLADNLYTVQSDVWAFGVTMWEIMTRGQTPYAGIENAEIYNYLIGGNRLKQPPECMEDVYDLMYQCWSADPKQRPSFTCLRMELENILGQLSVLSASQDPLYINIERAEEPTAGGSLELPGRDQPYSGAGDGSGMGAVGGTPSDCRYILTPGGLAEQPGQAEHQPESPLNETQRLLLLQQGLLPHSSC
Experimental: as §1

c-Kit = c-Kit (Homo sapiens, UniProt P10721); assay: HotSpot Kinase Assay, c-Kit
Experimental: as §1

FMS = FMS (Homo sapiens, UniProt P07333); assay: HotSpot Kinase Assay, FMS
Experimental: as §1

DDR1 = DDR1 (Homo sapiens, UniProt Q08345); assay: HotSpot Kinase Assay, DDR1
Experimental: as §1

EPHA2 = EPHA2 (Homo sapiens, UniProt P29317); assay: HotSpot Kinase Assay, EPHA2
Experimental: as §1

Chain of c-Kit (P10721 26-976): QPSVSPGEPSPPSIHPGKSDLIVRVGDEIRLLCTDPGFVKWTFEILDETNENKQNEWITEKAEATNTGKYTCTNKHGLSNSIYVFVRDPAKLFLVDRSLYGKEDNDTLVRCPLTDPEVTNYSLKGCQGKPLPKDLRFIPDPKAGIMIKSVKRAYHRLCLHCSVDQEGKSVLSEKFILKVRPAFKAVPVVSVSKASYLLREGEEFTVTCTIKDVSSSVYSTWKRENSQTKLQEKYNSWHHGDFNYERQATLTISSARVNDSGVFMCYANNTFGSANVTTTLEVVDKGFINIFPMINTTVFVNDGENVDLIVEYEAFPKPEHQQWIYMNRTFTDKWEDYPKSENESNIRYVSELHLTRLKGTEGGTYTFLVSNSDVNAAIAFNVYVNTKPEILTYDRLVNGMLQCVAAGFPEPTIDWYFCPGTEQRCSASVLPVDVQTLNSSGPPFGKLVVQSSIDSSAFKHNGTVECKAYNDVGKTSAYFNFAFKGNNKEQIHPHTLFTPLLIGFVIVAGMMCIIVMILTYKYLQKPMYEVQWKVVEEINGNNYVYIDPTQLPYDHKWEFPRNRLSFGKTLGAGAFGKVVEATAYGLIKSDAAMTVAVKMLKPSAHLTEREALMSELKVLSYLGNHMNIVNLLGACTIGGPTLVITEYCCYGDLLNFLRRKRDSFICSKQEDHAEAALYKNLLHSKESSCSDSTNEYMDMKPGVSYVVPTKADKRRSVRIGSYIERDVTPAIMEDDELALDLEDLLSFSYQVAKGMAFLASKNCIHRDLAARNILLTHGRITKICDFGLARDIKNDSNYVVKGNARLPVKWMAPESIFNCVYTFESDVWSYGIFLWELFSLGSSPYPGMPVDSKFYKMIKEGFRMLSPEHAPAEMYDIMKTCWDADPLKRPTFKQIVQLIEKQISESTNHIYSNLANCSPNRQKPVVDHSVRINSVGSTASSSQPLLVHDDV
Chain of KDR/VEGFR2 (P35968 20-1356): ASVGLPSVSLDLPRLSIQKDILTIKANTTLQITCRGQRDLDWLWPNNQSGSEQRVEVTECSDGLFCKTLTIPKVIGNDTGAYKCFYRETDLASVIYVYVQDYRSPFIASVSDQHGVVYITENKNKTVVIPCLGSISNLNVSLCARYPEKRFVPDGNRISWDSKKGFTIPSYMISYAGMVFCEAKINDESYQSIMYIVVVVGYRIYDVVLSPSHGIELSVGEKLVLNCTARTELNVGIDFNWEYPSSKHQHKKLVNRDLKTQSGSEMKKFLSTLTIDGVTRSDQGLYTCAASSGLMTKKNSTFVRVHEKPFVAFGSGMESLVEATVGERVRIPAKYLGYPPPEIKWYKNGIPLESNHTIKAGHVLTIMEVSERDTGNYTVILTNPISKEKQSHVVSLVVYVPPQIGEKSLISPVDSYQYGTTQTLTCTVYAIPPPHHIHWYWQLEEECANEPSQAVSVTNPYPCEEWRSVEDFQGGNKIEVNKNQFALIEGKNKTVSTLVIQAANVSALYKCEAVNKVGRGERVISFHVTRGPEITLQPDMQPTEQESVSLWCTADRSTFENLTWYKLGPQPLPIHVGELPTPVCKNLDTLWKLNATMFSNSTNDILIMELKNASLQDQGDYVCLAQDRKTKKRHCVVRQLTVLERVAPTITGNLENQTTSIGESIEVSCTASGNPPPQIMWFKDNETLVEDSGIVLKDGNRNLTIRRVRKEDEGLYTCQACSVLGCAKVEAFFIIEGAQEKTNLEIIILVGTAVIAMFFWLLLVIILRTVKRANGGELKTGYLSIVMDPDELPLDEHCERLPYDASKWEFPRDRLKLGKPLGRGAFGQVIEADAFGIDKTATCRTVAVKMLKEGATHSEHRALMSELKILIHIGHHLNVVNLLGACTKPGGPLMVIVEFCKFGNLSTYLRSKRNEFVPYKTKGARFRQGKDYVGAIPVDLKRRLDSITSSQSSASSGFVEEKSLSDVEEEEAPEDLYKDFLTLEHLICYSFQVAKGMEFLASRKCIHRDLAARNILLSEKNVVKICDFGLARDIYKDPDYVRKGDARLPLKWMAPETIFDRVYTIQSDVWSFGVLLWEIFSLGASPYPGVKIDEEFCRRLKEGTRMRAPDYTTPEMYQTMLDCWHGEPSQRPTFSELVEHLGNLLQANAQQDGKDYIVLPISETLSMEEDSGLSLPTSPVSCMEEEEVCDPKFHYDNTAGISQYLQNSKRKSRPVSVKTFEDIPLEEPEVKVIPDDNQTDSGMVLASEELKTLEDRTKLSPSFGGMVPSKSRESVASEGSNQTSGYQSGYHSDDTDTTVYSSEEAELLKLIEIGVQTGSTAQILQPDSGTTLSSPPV
Chain of LOK/STK10 (O94804 whole entry): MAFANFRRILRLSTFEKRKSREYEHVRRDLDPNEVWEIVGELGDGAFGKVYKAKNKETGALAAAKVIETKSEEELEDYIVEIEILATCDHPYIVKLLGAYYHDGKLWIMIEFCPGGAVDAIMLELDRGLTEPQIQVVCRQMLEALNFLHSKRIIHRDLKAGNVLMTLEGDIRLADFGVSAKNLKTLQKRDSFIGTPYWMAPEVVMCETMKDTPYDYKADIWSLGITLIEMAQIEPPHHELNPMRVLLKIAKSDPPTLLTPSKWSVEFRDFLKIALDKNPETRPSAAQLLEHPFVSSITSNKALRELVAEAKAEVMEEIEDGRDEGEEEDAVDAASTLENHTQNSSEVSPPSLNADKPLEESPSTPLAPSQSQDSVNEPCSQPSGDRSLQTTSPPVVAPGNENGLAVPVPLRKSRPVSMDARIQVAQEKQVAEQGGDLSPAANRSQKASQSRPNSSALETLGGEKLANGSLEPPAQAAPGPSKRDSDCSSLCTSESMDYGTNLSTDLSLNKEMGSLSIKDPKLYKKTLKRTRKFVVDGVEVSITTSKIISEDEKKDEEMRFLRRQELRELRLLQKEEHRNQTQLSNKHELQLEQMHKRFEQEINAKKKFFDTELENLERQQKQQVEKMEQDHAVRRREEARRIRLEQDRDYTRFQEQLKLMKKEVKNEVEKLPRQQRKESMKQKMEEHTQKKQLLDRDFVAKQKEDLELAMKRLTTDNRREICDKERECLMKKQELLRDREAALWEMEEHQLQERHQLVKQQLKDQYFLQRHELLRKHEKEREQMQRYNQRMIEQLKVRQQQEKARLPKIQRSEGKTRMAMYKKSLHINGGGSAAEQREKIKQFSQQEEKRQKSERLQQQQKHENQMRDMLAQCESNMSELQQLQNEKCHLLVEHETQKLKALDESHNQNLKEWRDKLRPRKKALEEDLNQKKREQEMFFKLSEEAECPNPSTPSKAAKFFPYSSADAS
Chain of DDR1 (Q08345 19-913): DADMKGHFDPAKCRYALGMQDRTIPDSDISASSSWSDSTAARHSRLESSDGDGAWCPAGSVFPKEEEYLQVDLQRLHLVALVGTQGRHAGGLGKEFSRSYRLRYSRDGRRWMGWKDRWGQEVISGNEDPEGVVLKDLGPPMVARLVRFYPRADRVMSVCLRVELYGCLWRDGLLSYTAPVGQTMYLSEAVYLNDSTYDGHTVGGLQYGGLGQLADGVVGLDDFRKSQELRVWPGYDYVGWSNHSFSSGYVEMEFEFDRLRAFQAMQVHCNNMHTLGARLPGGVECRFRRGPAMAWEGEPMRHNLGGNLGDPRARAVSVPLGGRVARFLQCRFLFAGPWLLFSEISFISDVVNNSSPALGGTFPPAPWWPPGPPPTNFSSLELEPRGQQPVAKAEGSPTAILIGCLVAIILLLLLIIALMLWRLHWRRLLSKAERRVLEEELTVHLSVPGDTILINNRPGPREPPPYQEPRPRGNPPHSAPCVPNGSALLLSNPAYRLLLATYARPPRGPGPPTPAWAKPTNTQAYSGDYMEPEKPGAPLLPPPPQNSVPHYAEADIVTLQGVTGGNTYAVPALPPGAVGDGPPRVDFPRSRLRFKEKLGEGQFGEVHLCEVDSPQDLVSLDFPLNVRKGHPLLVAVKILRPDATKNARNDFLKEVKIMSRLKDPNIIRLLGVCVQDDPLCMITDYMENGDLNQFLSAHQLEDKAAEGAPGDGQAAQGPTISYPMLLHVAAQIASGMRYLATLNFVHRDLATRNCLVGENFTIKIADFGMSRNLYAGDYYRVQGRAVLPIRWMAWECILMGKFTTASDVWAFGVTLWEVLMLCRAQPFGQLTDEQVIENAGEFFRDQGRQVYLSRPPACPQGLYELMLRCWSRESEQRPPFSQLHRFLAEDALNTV
Chain of FMS (P07333 20-972): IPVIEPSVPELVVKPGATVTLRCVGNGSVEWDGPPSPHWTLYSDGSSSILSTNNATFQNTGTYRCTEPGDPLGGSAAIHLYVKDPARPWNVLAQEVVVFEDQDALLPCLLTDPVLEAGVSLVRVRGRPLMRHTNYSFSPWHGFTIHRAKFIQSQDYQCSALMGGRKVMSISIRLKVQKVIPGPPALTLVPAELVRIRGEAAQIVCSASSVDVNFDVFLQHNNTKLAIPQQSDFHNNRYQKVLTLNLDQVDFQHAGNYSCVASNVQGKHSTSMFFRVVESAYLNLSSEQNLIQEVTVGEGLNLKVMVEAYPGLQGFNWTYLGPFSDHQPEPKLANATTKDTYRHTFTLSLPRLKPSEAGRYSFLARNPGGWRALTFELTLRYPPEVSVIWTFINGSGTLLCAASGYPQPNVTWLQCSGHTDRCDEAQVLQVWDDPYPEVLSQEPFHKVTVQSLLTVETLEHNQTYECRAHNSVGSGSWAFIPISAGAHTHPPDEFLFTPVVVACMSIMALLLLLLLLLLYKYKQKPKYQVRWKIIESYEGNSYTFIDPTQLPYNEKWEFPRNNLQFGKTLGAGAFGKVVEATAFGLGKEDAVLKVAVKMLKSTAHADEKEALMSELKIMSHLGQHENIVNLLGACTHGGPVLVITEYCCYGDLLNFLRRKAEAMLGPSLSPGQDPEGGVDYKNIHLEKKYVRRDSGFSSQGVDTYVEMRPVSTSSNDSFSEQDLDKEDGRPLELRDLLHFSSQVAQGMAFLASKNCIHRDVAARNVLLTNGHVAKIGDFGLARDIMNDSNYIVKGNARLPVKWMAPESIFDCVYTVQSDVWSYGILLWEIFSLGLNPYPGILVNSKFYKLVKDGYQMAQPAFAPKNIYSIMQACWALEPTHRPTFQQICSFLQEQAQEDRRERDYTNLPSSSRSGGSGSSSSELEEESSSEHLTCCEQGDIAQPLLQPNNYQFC

Row | Structure (SMILES) | IC50 (AXL) | IC50 (c-MER) | IC50 (c-MET) | IC50 (KDR/VEGFR2) | IC50 (LOK/STK10) | IC50 (TYRO3/SKY) | IC50 (c-Kit) | IC50 (FMS) | IC50 (DDR1) | IC50 (EPHA2)
1 | COc1cc2c(Oc3ccc(NC(=O)C4(C(=O)Nc5ccc(F)cc5)CC4)cc3)ccnc2cc1OC(=O)N1C[C@@H]2C[C@H]1CN2C [Compound 2-7] | < 100 nM | < 100 nM | < 100 nM | 100 to 1000 nM | 100 to 1000 nM | 100 to 1000 nM | < 100 nM | < 100 nM | < 100 nM | < 100 nM
2 | COc1cc2c(Oc3ccc(NC(=O)C4(C(=O)Nc5ccc(F)cc5)CC4)cc3F)ccnc2cc1OC(=O)N1CCN(C)C[C@H]1C [Compound 3-5, 4-(2-fluoro-4-(1-((4-fluorophenyl)carbamoyl)cyclopropane-1-carboxamido)phenoxy)-6-methoxyquinolin-7-yl (R)-2,4-dimethylpiperazine-1-carboxylate] | < 100 nM | < 100 nM | < 100 nM | < 100 nM | 100 to 1000 nM | 100 to 1000 nM | < 100 nM | 100 to 1000 nM | < 100 nM | < 100 nM
3 | COc1cc2c(Oc3ccc(NC(=O)C4(C(=O)Nc5ccc(F)cc5)CC4)cc3F)ccnc2cc1OC(=O)N1CCN(C)C[C@@H]1C [Compound 3-6] | < 100 nM | < 100 nM | < 100 nM | 100 to 1000 nM | 100 to 1000 nM | 100 to 1000 nM | 100 to 1000 nM | 100 to 1000 nM | < 100 nM | < 100 nM
4 | COc1cc2nccc(Oc3ccc(NC(=O)C4(C(=O)Nc5ccc(F)cc5)CC4)cc3)c2cc1OC(=O)N1CCN(C)CC1 [Compound 5-10] | < 100 nM | < 100 nM | < 100 nM | < 100 nM | 100 to 1000 nM | < 100 nM | < 100 nM | < 100 nM | < 100 nM | < 100 nM
5 | COc1cc2c(Oc3ccc(NC(=O)C4(C(=O)Nc5ccc(F)cc5)CC4)cc3)ccnc2cc1OC(=O)N1[C@H](C)CNC[C@@H]1C [Compound 6-2] | < 100 nM | 100 to 1000 nM | 100 to 1000 nM | 100 to 1000 nM | 100 to 1000 nM | 100 to 1000 nM | < 100 nM | 100 to 1000 nM | < 100 nM | 100 to 1000 nM
6 | COc1cc2c(Oc3ccc(NC(=O)C4(C(=O)Nc5ccc(F)cc5)CC4)cc3)ccnc2cc1OC(=O)N1[C@H](C)CN(C)C[C@@H]1C [Compound 6-3] | < 100 nM | < 100 nM | 100 to 1000 nM | 100 to 1000 nM | 100 to 1000 nM | 100 to 1000 nM | < 100 nM | 100 to 1000 nM | < 100 nM | 100 to 1000 nM
7 | COc1cc2c(Oc3ccc(NC(=O)C4(C(=O)Nc5ccc(F)cc5)CC4)cc3)ccnc2cc1OC(=O)N1CCNC[C@H]1C [Compound 6-4] | < 100 nM | < 100 nM | < 100 nM | 100 to 1000 nM | 100 to 1000 nM | 100 to 1000 nM | < 100 nM | < 100 nM | < 100 nM | 100 to 1000 nM
8 | COc1cc2c(Oc3ccc(NC(=O)C4(C(=O)Nc5ccc(F)cc5)CC4)cc3)ccnc2cc1OC(=O)N1CCNCC1(C)C [Compound 6-5] | < 100 nM | < 100 nM | < 100 nM | > 1000 nM | 100 to 1000 nM | 100 to 1000 nM | < 100 nM | 100 to 1000 nM | < 100 nM | 100 to 1000 nM
9 | COc1cc2c(Oc3ccc(NC(=O)C4(C(=O)Nc5ccc(F)cc5)CC4)cc3)ccnc2cc1OC(=O)N1CCN(C)CC1(C)C [Compound 6-6] | < 100 nM | < 100 nM | 100 to 1000 nM | 100 to 1000 nM | 100 to 1000 nM | 100 to 1000 nM | < 100 nM | 100 to 1000 nM | < 100 nM | 100 to 1000 nM
10 | COc1cc2nccc(Oc3ccc(NC(=O)C4(C(=O)Nc5ccc(F)cc5)CC4)cc3)c2cc1OC(=O)N1CCNC[C@H]1C [Compound 7-2] | < 100 nM | < 100 nM | < 100 nM | < 100 nM | < 100 nM | < 100 nM | < 100 nM | < 100 nM | < 100 nM | < 100 nM
11 | COc1cc2nccc(Oc3ccc(NC(=O)C4(C(=O)Nc5ccc(F)cc5)CC4)cc3)c2cc1OC(=O)N1CCN(C)C[C@H]1C [Compound 7-3] | < 100 nM | < 100 nM | < 100 nM | < 100 nM | 100 to 1000 nM | < 100 nM | < 100 nM | < 100 nM | < 100 nM | 100 to 1000 nM
12 | COc1cc2nccc(Oc3ccc(NC(=O)C4(C(=O)Nc5ccc(F)cc5)CC4)cc3)c2cc1OC(=O)N1[C@H](C)CNC[C@@H]1C [Compound 7-4] | < 100 nM | < 100 nM | < 100 nM | < 100 nM | 100 to 1000 nM | < 100 nM | < 100 nM | < 100 nM | < 100 nM | 100 to 1000 nM
